For 20 compounds, IC50 results are on record in patent US20220380338A1, “CYCLOALKYL 3-OXOPIPERAZINE CARBOXAMIDES AND CYCLOHETEROALKYL 3-OXOPIPERAZINE CARBOXAMIDES AS NAV1.8 INHIBITORS” (Merck Sharp & Dohme LLC, priority 2021, published 2022).

In the test the target is T1, human NaV1.8 (Homo sapiens, UniProt Q9Y5Y9).
T1 construct: expressed in transfected cells
T1 sequence (Q9Y5Y9 whole entry): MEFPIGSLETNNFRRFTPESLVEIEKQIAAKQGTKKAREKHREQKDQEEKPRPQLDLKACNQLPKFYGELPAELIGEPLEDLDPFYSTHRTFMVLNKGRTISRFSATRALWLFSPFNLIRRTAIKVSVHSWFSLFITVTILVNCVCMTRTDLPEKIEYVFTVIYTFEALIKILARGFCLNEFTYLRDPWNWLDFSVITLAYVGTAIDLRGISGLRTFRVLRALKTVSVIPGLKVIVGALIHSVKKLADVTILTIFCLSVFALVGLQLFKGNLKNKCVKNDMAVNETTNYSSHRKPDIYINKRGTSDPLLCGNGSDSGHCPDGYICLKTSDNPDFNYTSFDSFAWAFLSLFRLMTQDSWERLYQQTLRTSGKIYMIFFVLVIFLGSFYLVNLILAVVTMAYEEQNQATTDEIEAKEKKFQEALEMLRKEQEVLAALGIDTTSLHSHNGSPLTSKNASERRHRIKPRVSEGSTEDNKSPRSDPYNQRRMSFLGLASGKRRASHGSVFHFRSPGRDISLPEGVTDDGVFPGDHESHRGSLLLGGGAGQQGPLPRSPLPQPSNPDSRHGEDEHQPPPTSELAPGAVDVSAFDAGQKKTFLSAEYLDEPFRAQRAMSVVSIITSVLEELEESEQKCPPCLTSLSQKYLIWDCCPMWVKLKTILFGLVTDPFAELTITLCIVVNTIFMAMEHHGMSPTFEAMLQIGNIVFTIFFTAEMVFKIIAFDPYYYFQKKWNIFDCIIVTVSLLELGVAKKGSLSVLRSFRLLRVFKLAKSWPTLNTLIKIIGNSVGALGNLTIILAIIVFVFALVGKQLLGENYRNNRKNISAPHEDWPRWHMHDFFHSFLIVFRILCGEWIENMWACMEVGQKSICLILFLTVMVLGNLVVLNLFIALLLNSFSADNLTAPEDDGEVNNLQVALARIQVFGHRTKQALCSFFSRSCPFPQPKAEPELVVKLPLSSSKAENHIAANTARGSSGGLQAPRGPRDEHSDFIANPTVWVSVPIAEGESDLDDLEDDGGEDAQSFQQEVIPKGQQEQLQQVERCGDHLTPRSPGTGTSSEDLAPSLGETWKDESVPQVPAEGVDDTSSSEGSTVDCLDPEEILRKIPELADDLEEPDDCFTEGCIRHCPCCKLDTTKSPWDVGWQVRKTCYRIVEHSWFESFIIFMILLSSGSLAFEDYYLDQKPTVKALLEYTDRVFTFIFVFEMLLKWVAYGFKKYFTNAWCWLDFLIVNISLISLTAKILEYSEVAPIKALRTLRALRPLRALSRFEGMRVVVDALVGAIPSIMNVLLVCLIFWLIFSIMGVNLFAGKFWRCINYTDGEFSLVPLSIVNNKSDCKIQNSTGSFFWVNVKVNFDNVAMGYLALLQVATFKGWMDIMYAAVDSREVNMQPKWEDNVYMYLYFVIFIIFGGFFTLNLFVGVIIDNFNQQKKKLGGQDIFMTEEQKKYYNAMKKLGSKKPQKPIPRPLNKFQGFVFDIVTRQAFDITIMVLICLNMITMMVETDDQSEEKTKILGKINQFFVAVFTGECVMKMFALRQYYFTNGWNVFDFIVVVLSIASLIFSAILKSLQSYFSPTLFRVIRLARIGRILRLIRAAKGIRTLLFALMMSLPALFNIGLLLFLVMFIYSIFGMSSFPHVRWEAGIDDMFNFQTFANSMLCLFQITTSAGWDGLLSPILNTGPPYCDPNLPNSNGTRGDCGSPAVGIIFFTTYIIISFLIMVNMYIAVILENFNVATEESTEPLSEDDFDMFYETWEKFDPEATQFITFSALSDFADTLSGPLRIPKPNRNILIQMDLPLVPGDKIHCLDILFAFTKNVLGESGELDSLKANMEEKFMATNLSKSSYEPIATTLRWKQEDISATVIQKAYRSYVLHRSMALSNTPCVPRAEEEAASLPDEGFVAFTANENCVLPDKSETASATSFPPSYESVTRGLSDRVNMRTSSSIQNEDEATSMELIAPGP
Put plainly: Nav1.8 Qube® Assay (automated 384-well patch-clamp, inhibition of sodium current). The test is classed as cell-based. As to conditions: human NaV1.8 channels stably expressed in HEK 293 cells, room temperature. Here is the method: Compounds were tested on human NaV1.8 and NaV1.5 channels stably expressed in human embryo kidney (HEK) 293 cells. Sodium current measurements on Qube® were conducted as follows: automated 384-well patch-clamp assays on the Qube® platform (Sophion Biosciences) were used to measure the inhibition of sodium flow through human NaV1.8 and NaV1.5 channels. Whole-cell voltage-clamp recordings were performed in QChips® (Sophion Biosciences) at room temperature. NaV1.8 current measurements on Qube® were obtained as follows: NaV1.8 currents were elicited with a 10 second 1 Hertz (Hz) pulse train from a holding potential of −90 millivolts (mV), delivered to the cells once per minute in the control condition (DMSO only) and after compound addition. The 1 hertz pulse train stimulation consisted of ten test pulses to 10 millivolt (mV) for 20 milliseconds (ms), each of which was followed by a 980 millisecond repolarization to −67 millivolts. At the end of the 10 second pulse train stimulation, a 5 second hyperpolarization step to −100 millivolt (mV) was used to recover NaV1.8 from fast inactivation. The peak currents elicited by the 1st and 10th test pulses were used to determine IC50 values for resting inhibition and inactivated state inhibition. NaV1.5 current measurements on Qube® were obtained as follows: NaV1.5 currents were elicited with a 20 second 3 Hertz pulse train in the control condition (DMSO only) and after compound addition. The pulse train consisted of sixty 20 millisecond test pulses to 0 millivolt from a holding potential of −80 millivolt (mV). The average peak currents elicited by the last 3 test pulses were used to determine IC50 values for NaV1.5 inhibition.
The following buffers were used for the Qube® recordings: External buffer for NaV1.8 Qube® recording: 150 NaCl, 2 CaCl2, 5 KCl, 1 Mg Cl2, 10 HEPES, 12 Dextrose; External buffer for Qube® NaV1.5 recording: 120 N-Methyl-D-Glucamine, 40 NaCl, 1 KCl, 2.7 CaCl2, 5 HEPES, 0.5 MgCl2; and Internal buffer for Qube® recording: 120 CsF, 30 CsCl, 10 EGTA, 5 HEPES, 5 NaF, 2 MgCl2.
For all Qube® experiments offline analysis was used to determine percent inhibition as a function of drug concentration. IC50 values were determined by fitting to the Hill equation.
As usually defined, the IC50 is the concentration that gives 50% inhibition. Read a low IC50 as higher potency. Compound `O=C1CN(C(=O)N[C@H](c2ccc(F)c(Cl)c2)C2CCC(C(F)(F)F)CC2)CCN1` (single isomer, unassigned) [Example 1A] displayed an IC50 of 3.5 nM.
The same measure for `O=C1CN(C(=O)N[C@H](c2ccc(F)c(Cl)c2)C2CCC(C(F)(F)F)CC2)CCN1` (single isomer, unassigned) [Example 1B]: 183 nM.
The same measure for `O=C1CN(C(=O)NC(c2ccc(F)c(Cl)c2)C2CC3CCC(C2)C3(F)F)CCN1` (single isomer, unassigned) [Example 2A, N-((R or S)-(3-chloro-4-fluoro-phenyl)(8,8-difluoro-bicyclo[3.2.1]octan-3-yl)methyl)-3-oxopiperazine-1-carboxamide]: 65.5 nM; for `O=C1CN(C(=O)NC(c2ccc(F)c(Cl)c2)C2CC3CCC(C2)C3(F)F)CCN1` (single isomer, unassigned) [Example 2B, N-((S or R)-(3-chloro-4-fluoro-phenyl)(8,8-difluroo-bicyclo[3.2.1]octan-3-yl)methyl)-3-oxopiperazine-1-carboxamide]: 410 nM.
Compound `C[C@@H]1C(=O)NCCN1C(=O)NC(c1ccc(F)c(Cl)c1)C1CC2CCC(C1)C2(F)F` (single isomer, unassigned) [Example 3A, (2R)-N-((R or S)-(3-chloro-4-fluoro-phenyl)(8,8-difluoro-bicyclo[3.2.1]octan-3-yl)methyl)-2-methyl-3-oxo-piperazine-1-carboxamide] came in with a 50% inhibitory concentration (IC50) of 14.8 nM.
As for `C[C@@H]1C(=O)NCCN1C(=O)NC(c1ccc(F)c(Cl)c1)C1CC2CCC(C1)C2(F)F` (single isomer, unassigned) [Example 3B, (2R)-N-((S or R)-(3-chloro-4-fluoro-phenyl)(8,8-difluoro-bicyclo[3.2.1]octan-3-yl)methyl)-2-methyl-3-oxo-piperazine-1-carboxamide], the IC50 was 148 nM.
`O=C1CN(C(=O)N[C@H](c2ccc(Cl)cc2)C2CCC(C(F)(F)F)CC2)CCN1` (single isomer, unassigned) [Example 4A, N-((R or S)-(4-chlorophenyl)(trans-4-(trifluoromethyl)-cyclohexyl)methyl)-3-oxopiperazine-1-carboxamide] returned an IC50 of 89.3 nM.
As to `O=C1CN(C(=O)N[C@H](c2ccc(Cl)cc2)C2CCC(C(F)(F)F)CC2)CCN1` (single isomer, unassigned) [Example 4B, N-((S or R)-(4-chlorophenyl)(trans-4-(trifluoromethyl)-cyclohexyl)methyl)-3-oxopiperazine-1-carboxamide], it took 288 nM to reach half-maximal inhibition (IC50).
`C[C@@H]1C(=O)NCCN1C(=O)N[C@H](c1ccc(F)c(Cl)c1)C1CCC(C(F)(F)F)CC1` (single isomer, unassigned) [Example 5A, (2R)-N-((R or S)-(3-chloro-4-fluoro-phenyl)(trans-4-(trifluoromethyl)cyclo-hexyl)methyl)-2-methyl-3-oxo-piperazine-1-carboxamide] came in with a concentration for half-maximal inhibition (IC50) of 40.9 nM.
The figure for `C[C@@H]1C(=O)NCCN1C(=O)N[C@H](c1ccc(F)c(Cl)c1)C1CCC(C(F)(F)F)CC1` (single isomer, unassigned) [Example 5B, (2R)-N-((S or R)-(3-chloro-4-fluoro-phenyl)(trans-4-(tri-fluoromethyl)cyclo-hexyl)methyl)-2-methyl-3-oxo-piperazine-1-carboxamide] is 4.2 nM.
The same measure for `C[C@@H]1C(=O)NCCN1C(=O)NC(c1cc(F)c(F)c(F)c1)[C@H]1CC[C@H](C(F)(F)F)CC1` (single isomer, unassigned) [Example 6A, (R)-2-methyl-3-oxo-N-((R or S)-(trans-4-(trifluoromethyl)cyclo-hexyl)(3,4,5-tri-fluorophenyl)methyl) piperazine-1-carboxamide]: 232 nM; for `C[C@@H]1C(=O)NCCN1C(=O)NC(c1cc(F)c(F)c(F)c1)[C@H]1CC[C@H](C(F)(F)F)CC1` (single isomer, unassigned) [Example 6B, (R)-2-methyl-3-oxo-N-((S or R)-(trans-4-(trifluoromethyl)cyclo-hexyl)(3,4,5-tri-fluorophenyl)methyl) piperazine-1-carboxamide]: 35.4 nM; for `C[C@@H]1C(=O)NCCN1C(=O)NC(c1ccc(F)c(Cl)c1)[C@@H]1C[C@@H]2[C@H](C1)C2(F)F` (single isomer, unassigned) [Example 7A, (2R)-N-((R or S)-(3-chloro-4-fluoro-phenyl)((1R,3s,5S)-6,6-difluoro-bicyclo[3.1.0]hexan-3-yl)methyl)-2-methyl-3-oxo-piperazine-1-carboxamide]: 112 nM.
Regarding `C[C@@H]1C(=O)NCCN1C(=O)NC(c1ccc(F)c(Cl)c1)[C@@H]1C[C@@H]2[C@H](C1)C2(F)F` (single isomer, unassigned) [Example 7B, (2R)-N-((S or R)-(3-chloro-4-fluoro-phenyl)((1R,3s,5S)-6,6-difluoro-bicyclo[3.1.0]hexan-3-yl)methyl)-2-methyl-3-oxo-piperazine-1-carboxamide], half-maximal inhibition (IC50) required 11.7 nM.
The figure for `C[C@@H]1C(=O)NCCN1C(=O)NC(c1ccc(F)c(F)c1)[C@H]1CC[C@H](C(F)(F)F)CC1` (single isomer, unassigned) [Example 8A, (2R)-N-((R or S)-(3,4-difluoro-phenyl)(trans-4-(trifluoromethyl)cyclo-hexyl)methyl)-2-methyl-3-oxo-piperazine-1-carboxamide] is 244 nM; for `C[C@@H]1C(=O)NCCN1C(=O)NC(c1ccc(F)c(F)c1)[C@H]1CC[C@H](C(F)(F)F)CC1` (single isomer, unassigned) [Example 8B, (2R)-N-((S or R)-(3,4-difluoro-phenyl)(trans-4-(trifluoromethyl)cyclo-hexyl)methyl)-2-methyl-3-oxo-piperazine-1-carboxamide] it is 13.2 nM.
The same measure for `C[C@@H]1C(=O)NCCN1C(=O)NC(c1ccc(F)c(Cl)c1F)[C@H]1CC[C@H](C(F)(F)F)CC1` (single isomer, unassigned) [Example 9A, (2R)-N-((R or S)-(3-chloro-2,4-difluoro-phenyl)(trans-4-(trifluoromethyl)cyclo-hexyl)methyl)-2-methyl-3-oxo-piperazine-1-carboxamide]: 46.8 nM; for `C[C@@H]1C(=O)NCCN1C(=O)NC(c1ccc(F)c(Cl)c1F)[C@H]1CC[C@H](C(F)(F)F)CC1` (single isomer, unassigned) [Example 9B, (2R)-N-((S or R)-(3-chloro-2,4-difluoro-phenyl)(trans-4-(trifluoromethyl)cyclo-hexyl)methyl)-2-methyl-3-oxo-piperazine-1-carboxamide]: 0.8 nM.
The same measure for `O=C1CN(C(=O)NC(c2ccc(F)c(Cl)c2F)[C@H]2CC[C@H](C(F)(F)F)CC2)CCN1` (single isomer, unassigned) [Example 10A, N-((R or S)-(3-chloro-2,4-difluoro-phenyl)(trans-4-(trifluoromethyl)cyclo-hexyl)methyl)-3-oxopiperazine-1-carboxamide]: 311 nM; for `O=C1CN(C(=O)NC(c2ccc(F)c(Cl)c2F)[C@H]2CC[C@H](C(F)(F)F)CC2)CCN1` (single isomer, unassigned) [Example 10B, N-((S or R)-(3-chloro-2,4-di-fluorophenyl)(trans-4-(trifluoromethyl)-cyclohexyl)methyl)-3-oxopiperazine-1-carboxamide]: 3.87 nM.
